The subject of test [1] is BALB/c mice. In words: Reversal of immunosenescence: HBsAg vaccination of aged mice. In kind it is in vivo. How it is done:
Healthy aged (20-month) or immunologically-mature (3-month) BALB/c mice were vaccinated with hepatitis B surface antigen (HBsAg) (2 μg; Recombivax-HB; Merck) and Alum (2.75 μg). The aged mice were vaccinated with the antigen and also received a single subcutaneous injection of either 0.3 mg or 3.0 mg of 3β,7β,17β-trihydroxyandrost-5-ene (AET), BrEA or 7-oxodehydroepiandrosterone, dehydroepiandrosterone or the vehicle (placebo control). The AET, BrEA hemihydrate or dehydroepiandrosterone was present in a formulation that contained 60 mg/mL of the compound suspended in 0.1% w/v carboxymethyl cellulose sodium in 0.9% saline. 7-Oxodehydroepiandrosterone was in a formulation that contained 60 mg/mL of the compound suspended in 0.1% w/v gum arabic in 0.9% saline. A concentration of 6 mg/mL was obtained by diluting the 60 mg/mL formulation with vehicle that lacked the active substance.
Blood samples were collected 14, 21 and 34 days after treatment and the sera were analyzed by ELISA to determine the concentration of HBsAg-specific IgG (total IgG). In addition, samples obtained on day 21 were analyzed to determine the concentration of HBsAg-specific IgG1 and IgG2a subclasses. The results summarized below were average values obtained with blood samples collected 21 days after vaccination of groups of 8 mice. Subcutaneous injection was performed after shaving the hair from the thighs of each mouse. The injected volume was 50 μL for compound (3.0 mg or 0.3 mg) or placebo, and for vaccine preparation. The vehicle control consisted of carboxymethylcellulose (0.5%) in saline (0.9%). Antibody titers were determined by ELISA.
Secondary antibody response. Later, 42 days after the initial exposure to HBsAg, serum samples were taken from the mice described in the previous section and these were tested for anti-HBsAg IgG. At this time-point, vaccine-specific IgG titers were either low or undetectable. Three days later (45 days after first vaccination), the mice were injected again with HBsAg in Alum, but this time, none of the mice received immunosteroid (secondary vaccination). Serum samples collected 7 days and 14 days after the second exposure to HBsAg vaccine were assayed for anti-HBsAg antibody. […] In contrast, in aged mice that had received no immunosteroid with the first HBsAg injection, low levels of anti-HBsAg were detectable, and only in 4 of the 8 mice in this group was antibody detectable. Increases in anti-HBsAg titers were seen following secondary vaccination in aged animals that had been treated with immunosteroid in conjunction with the first HBsAg exposure. The anti-HBsAg antibody titer in serum increased following secondary vaccination in all 8 mice in the groups of aged mice that were treated at primary vaccination with the higher dose (3 mg/mouse) of AET, BrEA or 7-oxodehydroepiandrosterone, or with dehydroepiandrosterone (0.3 mg/mouse). In those aged mice that had received the lower dose (0.3 mg/mouse) of AET, BrEA or 7-oxodehydroepiandrosterone at vaccination, an intermediate response was seen, with 6 of the 8 mice producing detectable anti-HBsAg in response to secondary vaccination.

Test [2] concerns Sprague Dawley rats. In words: TNBS induced distal colitis in rats. The format is in vivo. The note with it: day 14. On the procedure: In another protocol formula 1 compounds were used in a similar animal model. Groups of 10 male Sprague Dawley rats (250-300 grams) were fasted for 24 hours before 2,4,6-trinitrobenzene sulfonic acid (TNBS) or saline challenge. This model presents a severe challenge to the animal's immune system. On Day 0, the rats were lightly anesthetized and a catheter inserted rectally into the colon such that the tip was 8 cm proximal to the anus. Distal colitis was induced by intra-colonic instillation of 0.5 mL of an ethanolic solution of TNBS (60 mg/mL ethanol 50% in water). The test substance, 7-oxodehydroepiandrosterone 20 mg/mL in vehicle or vehicle control was administered by subcutaneous injection (0.1 mL/injection) once a day for 6 days, the first dose being given 30 minutes after TNBS challenge. Sulfasalazine (30 mg/mL in 2% Tween 80 in distilled water) or vehicle control was administered orally (PO) once a day (10 mL/kg/day) for 7 days, the first two doses beginning 24 hours and 2 hours before […] challenge. Signs of diarrhea were recorded daily by examining the anal area. Animals were fasted for 24 hours prior to sacrifice on day 14 and the colon was removed and weighed. After gross observations of colonic tissues, 3 samples were taken from regions approximately 1, 3, and 8 cm proximal to the anus. If gross ulcers or inflammation were present, at least one sample was taken from the affected region. Before removal of the colon, signs of adhesion between the colon and other organs were recorded. […] Body weight, colon-to-body-weight ratio, and damage scores were assessed. Visible damage was scored on a 1-5 scale as follows: 0=No damage; 1=Localized hyperemia but no ulcers; 2=linear ulcers with no significant inflammation; 3=Linear ulcers with inflammation at one site; 4=Two or more sites of ulceration and/or inflammation; 5=Two or more major sites of ulceration and inflammation or one major site of ulceration and inflammation extending more than 1 cm along the length of the colon. […]

Test [3] concerns Wistar rats. In words: DNBS induced distal colitis in rats. The format is in vivo. The settings on record: DNBS rats. How it is done:
Groups of 3 male Wistar rats (180±20 grams) fasted for 24 hours before 2,4-dinitrobenzene sulfonic acid (DNBS) or saline challenge were used. Distal colitis was induced by intra-colonic instillation of 0.5 mL of an ethanolic solution of DNBS (30 mg in 0.5 mL of a 30% ethanol in saline solution) after which 2 mL of air was injected through the cannula to ensure that the solution remained in the colon. The volume used was 0.1 mL per injection of 2 and 20 mg/mL of 7-oxodehydroepiandrosterone in a liquid formulation, was administered by subcutaneous injection once a day for 6 days. The formulation contained […] of 7-oxodehydroepiandrosterone in a non-aqueous suspension that contained 2% benzyl alcohol w/v, 0.1% Brij 96 w/v and equal volumes of PEG 300 and propylene glycol. Concentrations of 2 mg/mL and 20 mg/mL were obtained by diluting the […] with vehicle that lacked the active substance.
The first dose was given 30 minutes after DNBS challenge. Sulfasalazine (30 mg/mL in 2% Tween 80 in distilled water) was administered orally (PO) once a day (10 mL/kg/day) for 7 days, the first two doses beginning 24 hours and 2 hours before DNBS challenge. The presence of diarrhea was recorded daily by examining the anal area. Animals were fasted for 24 hours prior to being sacrificed. Animals were sacrificed on day 7 or day 8 and their colons were removed and weighed. Before removal of the colon, signs of adhesion between the colon and other organs were recorded. Also, the presence of ulcerations was noted after weighing of each colon. The “net” change of colon-to-body weight (BW) ratio was normalized relative to saline-challenged baseline group. A 30% decrease in “net” colon-to-body weight ratio was considered significant.
A total of five studies were conducted. Data from the first study are reported in this report. The 7-oxodehydroepiandrosterone at 2 and 20 mg/mL, decreased the net colon-to-body weight ratio by 19 and by 14% relative to vehicle-treated group, respectively. […] The formula 1 compound 3β,7β,17β-trihydroxyandrost-5-ene (AET) was administered by subcutaneous injections of 2 and 20 mg/day for 5 or 6 days, with the first dose injected 30 minutes post-DNBS challenge. The AET formulation was the same as the 7-oxodehydroepiandrosterone formulation, except that AET replaced 7-oxodehydroepiandrosterone. AET decreased the net colon-to-body weight ratio by 15% and 21% relative to controls (see the table below). Animals treated with AET (20 mg/kg) had no diarrhea. […] The same formulations containing BrEA hemihydrate (100 mg/mL) or dehydroepiandrosterone (20 mg/mL) decreased the net colon-to-body weight ratio by 21 and 3%, respectively relative to controls.

In test [4] the target is chloroquine resistant KI P. falciparum. In kind it is cell-based. How it is done: Triplicate readings were made for each concentration.
The testing was carried out according to the procedure of Desjardins et al. 1979. After 30 hr culture at 37 degrees C., the same microtiter plates from schizont inhibition assays with another triplicate wells were pulsed with ^3H-hypoxanthine for overnight. The cell suspensions were washed twice on millipore glass fiber filter with Millipore filter apparatus. […] The activity of the drug was measured by plotting DPM against concentration of drug.

Structures are written as SMILES.

With `C[C@]12CC[C@H](O)CC1=CC(=O)[C@@H]1[C@@H]2CC[C@]2(C)C(=O)CC[C@@H]12` [7-oxodehydroepiandrosterone], the “mice producing anti-HBsAg in response to secondary vaccination” value in test [1] (groups of 8, 0.3 mg/mouse at primary vaccination) was 6 mice. Further, the “mice with increased anti-HBsAg antibody titer following secondary vaccination” value in test [1] (groups of 8, 3 mg/mouse at primary vaccination) worked out at 8 mice. For the same compound, in test [2], the “histopathology: inflammation / lesion frequency and severity versus controls” value is recorded as “exacerbated the inflammation”. In addition, in test [3] (first study, groups of 3), the adhesions entry is recorded as “Adhesions were absent in all three tested animals” and the colonic ulceration is on record as 1/3. Moreover, the diarrhea entry in test [3] (7-oxodehydroepiandrosterone 2 and 20 mg/mL s.c., sulfasalazine PO, AET 20 mg/kg) is on record as “All animals had diarrhea”.
In the case of `C[C@]12CC[C@H](O)C[C@@H]1CC[C@@H]1[C@@H]2CC[C@]2(C)C(=O)[C@H](Cl)C[C@@H]12` [16-chloroepiandrosterone, 16α-chloroepiandrosterone], the IC50 entry in test [4] is on record as “˜9.25 μg/mL”.
`C[C@]12CC[C@H](O)CC1=CC[C@@H]1[C@@H]2CC[C@]2(C)C(=O)[C@H](Br)C[C@@H]12` [DHEA-Br, 16α-bromodehydro-epiandrosterone]: the IC50 result in test [4] is “˜25.0 μg/mL”.

The values are drawn from US20070275936A1, “Formulations and Treatment Methods” (priority 1998, published 2007).
